Source: paper PMC4344250, “Characterization of the Major Light-Harvesting Complexes (LHCBM) of the Green Alga Chlamydomonas reinhardtii” (PLoS ONE, 2015)
Values belong to the molecule of their own block, whether it stands above or below them.

How the values were obtained:
LHCBM1 [1] = target: T1, LHCBM1 (Chlamydomonas reinhardtii, UniProt Q93VE0); experiment: in vitro reconstitution, Ni-affinity and sucrose gradient, HPLC of bound pigments; type: binding; details: C. reinhardtii pigment mix, measured only as Neo+loro sum
T1 construct: gene LhcII-4

LHCBM2 = target: T2, LHCBM2 (Chlamydomonas reinhardtii, UniProt Q93WE0); experiment: as above; type: binding; details: C. reinhardtii pigment mix, Chl a/b 2.5; stoichiometry, not an affinity
T2 construct: gene LhcII-3
Excerpt: in vitro reconstitution, Ni-affinity and sucrose gradient, HPLC of bound pigments on LHCBM2

LHCBM9 [2] = target: T3, LHCBM9 (Chlamydomonas reinhardtii, UniProt Q8S3T9); experiment: as above; type: binding; details: C. reinhardtii pigment mix, Chl a/b 2.5; stoichiometry, not an affinity
Excerpt: in vitro reconstitution, Ni-affinity and sucrose gradient, HPLC of bound pigments on LHCBM9

LHCBM1 [3] = target: T1, LHCBM1; experiment: as above; type: binding; details: C. reinhardtii pigment mix, Chl a/b 2.5, stoichiometry, not an affinity
Excerpt: in vitro reconstitution, Ni-affinity and sucrose gradient, HPLC of bound pigments on LHCBM1

LHCBM6 = target: T4, LHCBM6 (Chlamydomonas reinhardtii, UniProt A8J287); experiment: as above; type: binding; details: C. reinhardtii pigment mix, Chl a/b 2.5; stoichiometry, not an affinity
T4 construct: gene CHLRE_06g285250v5
Excerpt: in vitro reconstitution, Ni-affinity and sucrose gradient, HPLC of bound pigments on LHCBM6

LHCBM5 = target: T5, LHCBM5 (Chlamydomonas reinhardtii, UniProt Q9ZSJ4); experiment: as above; type: binding; details: C. reinhardtii pigment mix, Chl a/b 2.5; stoichiometry, not an affinity
T5 construct: gene Lhcb3
Excerpt: in vitro reconstitution, Ni-affinity and sucrose gradient, HPLC of bound pigments on LHCBM5

[4] = target: LHCBM2/7 (type III major light-harvesting complex protein of Chlamydomonas reinhardtii) (Chlamydomonas reinhardtii); experiment: sucrose density gradient ultracentrifugation + non-denaturing isoelectrofocusing (composition by SDS-PAGE); thylakoids solubilised with alpha-DM; trimeric band (B3) of the sucrose gradient separated by flat-bed ndIEF (ampholites pH 3.5-5, 0.06% beta-DM, 4 °C, 15 h); fractions run again as single bands on sucrose gradients (0.06% beta-DM, 20 mM Hepes pH 7.5); proteins identified by Tricine SDS-PAGE
LHCBM9 [5] = target: T3, LHCBM9; experiment: in vitro reconstitution, Ni-affinity and sucrose gradient, HPLC of bound pigments; type: binding; details: C. reinhardtii pigment mix; measured only as Neo+loro sum

T3 sequence (Q8S3T9 entry or part of it): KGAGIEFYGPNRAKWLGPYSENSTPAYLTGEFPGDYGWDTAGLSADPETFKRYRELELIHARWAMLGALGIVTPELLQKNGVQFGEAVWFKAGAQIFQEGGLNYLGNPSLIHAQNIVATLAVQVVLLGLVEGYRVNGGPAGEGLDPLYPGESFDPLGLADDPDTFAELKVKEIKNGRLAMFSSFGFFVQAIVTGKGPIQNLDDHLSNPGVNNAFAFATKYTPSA
T1 sequence (Q93VE0 entry or part of it): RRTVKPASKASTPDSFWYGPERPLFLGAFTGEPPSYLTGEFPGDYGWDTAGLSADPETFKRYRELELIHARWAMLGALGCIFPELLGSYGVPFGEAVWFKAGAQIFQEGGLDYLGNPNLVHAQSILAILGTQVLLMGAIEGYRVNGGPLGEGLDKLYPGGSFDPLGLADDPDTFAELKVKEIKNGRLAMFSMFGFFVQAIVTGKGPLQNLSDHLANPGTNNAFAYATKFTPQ
T4 sequence (A8J287 entry or part of it): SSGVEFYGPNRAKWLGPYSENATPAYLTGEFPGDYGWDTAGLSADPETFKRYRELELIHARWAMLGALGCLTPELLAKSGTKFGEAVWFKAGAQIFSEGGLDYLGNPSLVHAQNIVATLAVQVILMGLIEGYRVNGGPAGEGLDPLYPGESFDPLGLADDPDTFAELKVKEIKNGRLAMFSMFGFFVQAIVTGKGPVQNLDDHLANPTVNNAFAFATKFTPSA
T5 sequence (Q9ZSJ4 entry or part of it): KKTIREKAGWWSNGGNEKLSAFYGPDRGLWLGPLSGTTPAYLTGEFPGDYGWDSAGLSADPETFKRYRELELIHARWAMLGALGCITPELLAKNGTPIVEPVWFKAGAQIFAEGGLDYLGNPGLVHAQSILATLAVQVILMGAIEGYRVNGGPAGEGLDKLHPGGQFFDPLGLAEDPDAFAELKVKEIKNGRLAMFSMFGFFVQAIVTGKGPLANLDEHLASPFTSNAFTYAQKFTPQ
T2 sequence (Q93WE0 entry or part of it): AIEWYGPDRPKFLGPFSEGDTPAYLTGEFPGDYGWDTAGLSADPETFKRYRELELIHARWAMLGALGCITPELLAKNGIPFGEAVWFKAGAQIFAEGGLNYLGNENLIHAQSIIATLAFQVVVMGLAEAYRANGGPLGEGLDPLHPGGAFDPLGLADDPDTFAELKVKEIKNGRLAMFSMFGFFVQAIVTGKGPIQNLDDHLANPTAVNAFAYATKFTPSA

Molecule: CC(=C/C=C/C(C)=C/C=C/C=C(C)/C=C/C=C(\C)C=C=C1C(C)(C)C[C@H](O)C[C@@]1(C)O)/C=C/[C@@]12O[C@]1(C)C[C@@H](O)CC2(C)C [neoxanthin]
- in vitro reconstitution, Ni-affinity and sucrose gradient, HPLC of bound pigment (LHCBM1 [1]; N1 site suggested): All LHCBMs contain lutein, loroxanthin and neoxanthin and a small amount of violaxanthin

Molecule: CC1=C[C@H](O)CC(C)(C)[C@H]1/C=C/C(C)=C/C=C/C(C)=C/C=C/C=C(C)/C=C/C=C(C)/C=C/C1=C(C)C[C@@H](O)CC1(C)C [lutein]
- Lut/mon (LHCBM2): 1.43±0.04 mol per monomer (normalised to 14 Chls)
- Lut/mon (LHCBM9 [2]): 1.19±0.06 mol per monomer (normalised to 14 Chls)
- Lut/mon (LHCBM1 [3]): 1.32±0.01 mol per monomer (normalised to 14 Chls)
- Lut/mon (LHCBM6): 1.25±0.01 mol per monomer (normalised to 14 Chls)
- Lut/mon (LHCBM5): 1.38±0.01 mol per monomer (normalised to 14 Chls)

- stoichiometry N [4]: 3
Molecule: LHCBM2/7 (type III major light-harvesting complex protein of Chlamydomonas reinhardtii) (natural protein)

Molecule: CC1=C[C@H](O)CC(C)(C)[C@H]1/C=C/C(C)=C/C=C/C(C)=C/C=C/C=C(C)/C=C/C=C(/C=C/C1=C(C)C[C@@H](O)CC1(C)C)CO [loroxanthin]
- in vitro reconstitution, Ni-affinity and sucrose gradient, HPLC of bound pigment (LHCBM9 [5]): All LHCBMs contain lutein, loroxanthin and neoxanthin and a small amount of violaxanthin
- in vitro reconstitution, Ni-affinity and sucrose gradient, HPLC of bound pigment (LHCBM1 [1]; internal carotenoid site (L1 proposed)): All LHCBMs contain lutein, loroxanthin and neoxanthin and a small amount of violaxanthin

Molecule: CC(/C=C/C=C(C)/C=C/[C@@]12O[C@]1(C)C[C@@H](O)CC2(C)C)=C\C=C\C=C(C)\C=C\C=C(C)\C=C\[C@@]12O[C@]1(C)C[C@@H](O)CC2(C)C [violaxanthin]
- Vio/mon (LHCBM9 [2]): 0.24±0.01 mol per monomer (normalised to 14 Chls)
- Vio/mon (LHCBM1 [3]; V1 site suggested): 0.11±0.01 mol per monomer (normalised to 14 Chls)
